From article PMC11912270, “Synthesis and SAR Studies of Acyl-Thiourea Platinum(II) Complexes Yield Analogs with Dual-Stage Antiplasmodium Activity” (ACS Medicinal Chemistry Letters, 2025)

Experiments:
[1] = test system: early-stage gametocytes (NF54-PfS16-GFP-Luc); assay: Luciferase reporter assay, early-stage gametocytes; format: cell-based, Plasmodium falciparum; conditions: single biological repeat
Experimental: All the complexes were tested for their early- and late-stage gametocyte activity in a dual-point assay (1 μM and 5 μM). […]
1.5.In vitro activity against gametocyte stages
PfNF54 gametocytes were prepared and isolated according to the method reported by Reader […]
The in vitro gametocyte activity of the synthesized complexes was determined using a luciferase reporter line-based assay.
NF54-PfS16-GFP-Luc parasites were used for the stage-specific assessment of gametocytocidal activity. Early-stage gametocyte (stage I-III) experiments were performed on day 5 (representing >90% of early-stage and late-stage gametocyte (stages IV/V) experiments were performed on day 10. In each experiment, assays were set up with the use of 2-3% […]
Luciferase activity was determined in 30 µL parasite lysates by adding luciferin substrate (30 µL) (Promega Luciferase Assay System) at room temperature. […]

[2] = test system: Chinese hamster ovary (CHO) cell line; assay: MTT cytotoxicity assay; format: cell-based; conditions: cytotoxicity, MTT, 48 h; N, n = 1, 3; read-out: CHO IC50
Experimental: 1.6.In vitro cytotoxicity assay
A 3-(4,5-dimethylthiazol-2-yl)-2,5-diphenyltetrazoliumbromide (MTT) assay was used to screen the metal complexes against the mammalian Chinese hamster ovarian (CHO) cell line.
A stock solution of each compound (2 mg/mL) in DMSO was prepared and kept at -20 °C until needed. Emetine was used as a reference drug. A starting concentration of 100 µg/mL was used, and serially diluted ten-fold using a complete medium to give the lowest concentration of 0.001 µg/mL (6 dilutions). The plates containing the CHO cells under drug pressure were […]
Plates containing the drug and cell suspension were developed by adding 25 μL of sterile MTT (Thermo Fisher Scientific) (25 µL) to each well, followed by 4 h […]
of incubation at room temperature in the dark. The plates were then centrifuged, and the supernatant was removed via aspiration. Sample absorbance was read at a wavelength of 540 […]
analysis via GraphPad Prism v.4.0 software. The IC50 values were determined for each compound were determined from the dose-response curves. […]

[3] = Plasma protein binding by ultracentrifugation; format: in vitro ADME, human
Experimental: To determine the PK parameters, blood samples were collected from the tail vein of the mice into heparinized microcentrifugation tubes at distinct sampling times (0.17, 0.5, 1, 3, 5, 7, 9, 24, and 48 hours for intravenous dosing; 0.5, 1, 3, 5, 7, 9, 24 and 48 hours for oral dosing). All samples were stored at -80 °C until extraction.
For the bioanalysis, frozen whole blood was thawed at room temperature and 1-0 µL of each sample was extracted by protein precipitation (using 100 µL of acetonitrile containing 10 ng/ml of the internal standard, MMV394902). The sample was centrifuged. Supernatants of each sample were injected into the LC-MS/MS column for analysis. The analytical limit of quantitation (LOQ) was 2 ng/mL. The pharmacokinetic parameters were calculated using noncompartmental analysis using PK Solutions 2.0 (Summit Research Services, Montrose, CO, USA) and a curve stripping-based method.
1.10. […]
In preparation for the assay, the required membrane filters were precoated with hexadecane (5%) in hexane and were allowed to dry. […] The samples were analyzed using LCMS/MS (Agilent rapid resolution HPLC, AB SCIEX 4500 MS). The permeability (Papp) was calculated by using the normalized (analyte/internal standard) peak areas. Membrane integrity was calculated from the Papp of Lucifer yellow (acceptable values <50nm/s) using a Modulus microplate reader. […]

Nc1cc[n+]2c(c1)-c1cc(N)cc[n+]1[Pt-2]21[O+]=C(c2ccccc2)N=C(N(CCO)CCO)[S]1.[Cl-] [C6]
EG (% inhibition) 1 µM ([1]; 1 µM): 13.7 % inhibition | EG (% inhibition) 5 µM ([1]; 5 µM): 20.1 % inhibition | IC50 [2]: > 50 µM | Fu ([3]; Fu = (100 – PPB)/100): 0.01 | PPB (% bound) ([3]; human plasma, 5 µM): 99% bound
